# Laboratory results published in patent US20020137929A1, “1 - (3-heterocyclylphenyl) isothiourea, -isourea, -guanidine and -amidine herbicidal agents” (Intellectual Property Department, BASF Aktiengesellschaft, priority 1998, published 2002).
# Tests used:
# [1] = system: IPOHE (Morningglory, Ivyleaf); assay: Postemergence herbicidal evaluation; format: in vivo, Ipomoea hederacea; details: postemergence
# Summary of the method: (§1)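 Visual 0–9 rating versus control (stand, vigor, malformation, size, chlorosis, overall appearance), taken four to five weeks post-spray. Two-week-old seedlings received roughly 0.0156–0.500 kg/ha active in acetone/water (50/50) with 0.5% TWEEN 20 via nozzle at 40 psi.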
# [2] = system: AMBEL (Ragweed, Common); assay: Preemergence herbicidal evaluation; format: in vivo, Ambrosia artemisifolia; details: preemergence, rated 4-5 weeks after treatment, 0-9 scale
# Summary of the method: (§2)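 Scores use a 0–9 visual scale covering stand, vigor, malformation, size and chlorosis relative to controls, rated four to five weeks after treatment. Before emergence, soil-planted seeds were sprayed with compound in aqueous acetone at roughly 0.0156–0.500 kg/ha and held in the greenhouse.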
# [3] = system: CHEAL (Lambsquarters, Common); assay: Postemergence herbicidal evaluation; format: in vivo, Chenopodium album; details: postemergence
# Summary of the method: as §1
# [4] = system: CASOB (Sicklepod); assay: Preemergence herbicidal evaluation; format: in vivo, Cassia obtusifolia; details: preemergence, rated 4-5 weeks after treatment, 0-9 scale
# Summary of the method: as §2
# [5] = system: GLXMAW (Soybean, Williams); assay: Preemergence herbicidal evaluation; format: in vivo, Glycine max, (L.) Merr. cv Williams; details: preemergence, rated 4-5 weeks after treatment, 0-9 scale
# Summary of the method: as §2
# [6] = system: TRZAWR (Wheat, Winter, cv Riband); assay: Postemergence herbicidal evaluation; format: in vivo, Triticum aestivum; details: postemergence
# Summary of the method: as §1
# [7] = system: CHEAL (Lambsquarters, Common); assay: Preemergence herbicidal evaluation; format: in vivo, Chenopodium album; details: preemergence, rated 4-5 weeks after treatment, 0-9 scale
# Summary of the method: as §2
# [8] = system: MOOVA (Monochoria); assay: Preemergence weed control under flooded paddy conditions; format: in vivo, Monochoria vaginalis; details: rated 3-4 weeks after treatment
# Summary of the method: (§3)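 Herbicidal effect is scored visually on a 0-9 scale against an untreated control, three to four weeks after compounds are pipetted into the flood water (1.5 to 3 cm deep) over seeds planted in silt loam at 0.5 cm depth. Rates: about 0.0313 to 0.500 kg/ha.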
# [9] = system: ECHCG (Barnyardgrass); assay: Postemergence herbicidal evaluation; format: in vivo, Echinochloa crus-galli; details: postemergence
# Summary of the method: as §1
# [10] = system: CASOB (Sicklepod); assay: Postemergence herbicidal evaluation; format: in vivo, Cassia obtusifolia; details: postemergence
# Summary of the method: as §1
# [11] = system: ORYSAT (Rice, Tebonnet); assay: Preemergence herbicidal evaluation; format: in vivo, Oryza sativa, (L.) Tebonnet; details: preemergence, rated 4-5 weeks after treatment, 0-9 scale
# Summary of the method: as §2
# [12] = system: SAGPY (Arrowhead (Pygmaea)); assay: Preemergence weed control under flooded paddy conditions; format: in vivo, Sagittaria pygmaea; details: rated 3-4 weeks after treatment
# Summary of the method: as §3
# [13] = system: AMBEL (Ragweed, Common); assay: Postemergence herbicidal evaluation; format: in vivo, Ambrosia artemisifolia; details: postemergence
# Summary of the method: as §1
# [14] = system: ABUTH (Velvetleaf); assay: Preemergence herbicidal evaluation; format: in vivo, Abutilon theophrasti; details: preemergence, rated 4-5 weeks after treatment, 0-9 scale
# Summary of the method: as §2
# [15] = system: IPOHE (Morningglory, Ivyleaf); assay: Preemergence herbicidal evaluation; format: in vivo, Ipomoea hederacea; details: preemergence, rated 4-5 weeks after treatment, 0-9 scale
# Summary of the method: as §2
# [16] = system: GLXMAW (Soybean, Williams); assay: Postemergence herbicidal evaluation; format: in vivo, Glycine max, (L.) Merr. cv Williams; details: postemergence
# Summary of the method: as §1
smiles,measurement,setting,value
"CN1C(=O)C(CC(N)=O)SC1=Nc1cc(-n2c(=O)cc(C(F)(F)F)n(C)c2=O)c(F)cc1Cl (stereo not shown) [Compound 92, 2-{{2-Chloro-5-[3,6-dihydro-3-methyl-2,6-dioxo-4-(trifluoromethyl)-1(2H)-pyrimidinyl]-4-fluorophenyl}imino}-3-methyl-4-oxo-5-thiazolidineacetamide]",IPOHE herbicidal rating,[1]; rate 0.0158 kg/ha,9.0
same,IPOHE herbicidal rating,[1]; rate 0.0315 kg/ha,9.0
same,IPOHE herbicidal rating,[1]; rate 0.0630 kg/ha,9.0
same,AMBEL rating,[2]; 0.0156 kg/ha,0.0
same,AMBEL rating,[2]; 0.0313 kg/ha,0.0
same,AMBEL rating,[2]; 0.0625 kg/ha,0.0
same,AMBEL rating,[2]; 0.1250 kg/ha,5.0
same,AMBEL rating,[2]; 0.2500 kg/ha,9.0
same,CHEAL herbicidal rating,[3]; rate 0.0158 kg/ha,2.0
same,CHEAL herbicidal rating,[3]; rate 0.0315 kg/ha,9.0
same,CHEAL herbicidal rating,[3]; rate 0.0630 kg/ha,9.0
same,CASOB rating,[4]; 0.0156 kg/ha,0.0
same,CASOB rating,[4]; 0.0313 kg/ha,0.0
same,CASOB rating,[4]; 0.0625 kg/ha,0.0
same,CASOB rating,[4]; 0.2500 kg/ha,3.0
same,GLXMAW rating,[5]; 0.0156 kg/ha,0.0
same,GLXMAW rating,[5]; 0.0313 kg/ha,0.0
same,GLXMAW rating,[5]; 0.0625 kg/ha,0.0
same,GLXMAW rating,[5]; 0.1250 kg/ha,1.0
same,GLXMAW rating,[5]; 0.2500 kg/ha,5.0
same,TRZAWR herbicidal rating,[6]; rate 0.0158 kg/ha,5.0
same,TRZAWR herbicidal rating,[6]; rate 0.0315 kg/ha,6.0
same,TRZAWR herbicidal rating,[6]; rate 0.0630 kg/ha,6.5
same,CHEAL rating,[7]; 0.0156 kg/ha,9.0
same,CHEAL rating,[7]; 0.0313 kg/ha,9.0
same,CHEAL rating,[7]; 0.0625 kg/ha,9.0
same,CHEAL rating,[7]; 0.1250 kg/ha,9.0
same,CHEAL rating,[7]; 0.2500 kg/ha,9.0
same,MOOVA herbicidal effect rating,[8]; 0.0313 kg/ha,9.0
same,MOOVA herbicidal effect rating,[8]; 0.0625 kg/ha,9.0
same,MOOVA herbicidal effect rating,[8]; 0.1250 kg/ha,9.0
same,MOOVA herbicidal effect rating,[8]; 0.2500 kg/ha,9.0
same,ECHCG herbicidal rating,[9]; rate 0.0158 kg/ha,0.0
same,ECHCG herbicidal rating,[9]; rate 0.0315 kg/ha,1.0
same,ECHCG herbicidal rating,[9]; rate 0.0630 kg/ha,1.0
same,CASOB herbicidal rating,[10]; rate 0.0158 kg/ha,3.0
same,CASOB herbicidal rating,[10]; rate 0.0315 kg/ha,5.0
same,CASOB herbicidal rating,[10]; rate 0.0630 kg/ha,9.0
same,ORYSAT rating,[11]; 0.0156 kg/ha,0.0
same,ORYSAT rating,[11]; 0.0313 kg/ha,0.0
same,ORYSAT rating,[11]; 0.0625 kg/ha,0.0
same,ORYSAT rating,[11]; 0.1250 kg/ha,0.0
same,ORYSAT rating,[11]; 0.2500 kg/ha,5.0
same,SAGPY herbicidal effect rating,[12]; 0.0313 kg/ha,0.0
same,SAGPY herbicidal effect rating,[12]; 0.0625 kg/ha,0.0
same,SAGPY herbicidal effect rating,[12]; 0.1250 kg/ha,4.0
same,SAGPY herbicidal effect rating,[12]; 0.2500 kg/ha,9.0
same,AMBEL herbicidal rating,[13]; rate 0.0158 kg/ha,0.0
same,AMBEL herbicidal rating,[13]; rate 0.0315 kg/ha,9.0
same,AMBEL herbicidal rating,[13]; rate 0.0630 kg/ha,9.0
same,ABUTH rating,[14]; 0.0156 kg/ha,0.0
same,ABUTH rating,[14]; 0.0313 kg/ha,3.0
same,ABUTH rating,[14]; 0.0625 kg/ha,9.0
same,ABUTH rating,[14]; 0.1250 kg/ha,9.0
same,ABUTH rating,[14]; 0.2500 kg/ha,9.0
same,IPOHE rating,[15]; 0.0156 kg/ha,0.0
same,IPOHE rating,[15]; 0.0313 kg/ha,0.0
same,IPOHE rating,[15]; 0.0625 kg/ha,0.0
same,IPOHE rating,[15]; 0.1250 kg/ha,9.0
same,IPOHE rating,[15]; 0.2500 kg/ha,9.0
same,GLXMAW herbicidal rating,[16]; rate 0.0158 kg/ha,7.5
same,GLXMAW herbicidal rating,[16]; rate 0.0315 kg/ha,9.0
same,GLXMAW herbicidal rating,[16]; rate 0.0630 kg/ha,9.0
"C=CCN1C(=O)C(CC(=O)OC(C)C(=O)OCC)SC1=Nc1cc(-n2c(=O)ccn(C)c2=O)c(F)cc1Cl [Compound 94, 3-Allyl-2-{{2-chloro-5-[3,6-dihydro-3-methyl-2,6-dioxo-1(2H)-pyrimidinyl]-4-fluorophenyl}imino}-4-oxo-5-thiazolidineacetic acid, ester with ethyl lactate, (R,S)-]",IPOHE herbicidal rating,[1]; rate 0.0158 kg/ha,9.0
same,IPOHE herbicidal rating,[1]; rate 0.0315 kg/ha,9.0
same,IPOHE herbicidal rating,[1]; rate 0.0630 kg/ha,9.0
same,AMBEL rating,[2]; 0.0156 kg/ha,0.0
same,AMBEL rating,[2]; 0.0313 kg/ha,0.0
same,AMBEL rating,[2]; 0.0625 kg/ha,4.0
same,AMBEL rating,[2]; 0.1250 kg/ha,9.0
same,AMBEL rating,[2]; 0.2500 kg/ha,9.0
same,CHEAL herbicidal rating,[3]; rate 0.0158 kg/ha,9.0
same,CHEAL herbicidal rating,[3]; rate 0.0315 kg/ha,9.0
same,CHEAL herbicidal rating,[3]; rate 0.0630 kg/ha,9.0
same,CASOB rating,[4]; 0.0156 kg/ha,0.0
same,CASOB rating,[4]; 0.0313 kg/ha,0.0
same,CASOB rating,[4]; 0.0625 kg/ha,0.0
same,CASOB rating,[4]; 0.1250 kg/ha,0.0
same,CASOB rating,[4]; 0.2500 kg/ha,0.0
same,GLXMAW rating,[5]; 0.0156 kg/ha,0.0
same,GLXMAW rating,[5]; 0.0313 kg/ha,0.0
same,GLXMAW rating,[5]; 0.0625 kg/ha,0.0
same,GLXMAW rating,[5]; 0.1250 kg/ha,0.0
same,GLXMAW rating,[5]; 0.2500 kg/ha,4.0
same,TRZAWR herbicidal rating,[6]; rate 0.0158 kg/ha,6.0
same,TRZAWR herbicidal rating,[6]; rate 0.0315 kg/ha,9.0
same,TRZAWR herbicidal rating,[6]; rate 0.0630 kg/ha,8.0
same,CHEAL rating,[7]; 0.0156 kg/ha,9.0
same,CHEAL rating,[7]; 0.0313 kg/ha,9.0
same,CHEAL rating,[7]; 0.0625 kg/ha,9.0
same,CHEAL rating,[7]; 0.1250 kg/ha,9.0
same,CHEAL rating,[7]; 0.2500 kg/ha,9.0
same,MOOVA herbicidal effect rating,[8]; 0.0313 kg/ha,9.0
same,MOOVA herbicidal effect rating,[8]; 0.0625 kg/ha,9.0
same,MOOVA herbicidal effect rating,[8]; 0.1250 kg/ha,9.0
same,MOOVA herbicidal effect rating,[8]; 0.2500 kg/ha,9.0
same,ECHCG herbicidal rating,[9]; rate 0.0158 kg/ha,1.0
same,ECHCG herbicidal rating,[9]; rate 0.0315 kg/ha,7.0
same,ECHCG herbicidal rating,[9]; rate 0.0630 kg/ha,9.0
same,CASOB herbicidal rating,[10]; rate 0.0158 kg/ha,0.0
same,CASOB herbicidal rating,[10]; rate 0.0315 kg/ha,3.0
same,CASOB herbicidal rating,[10]; rate 0.0630 kg/ha,9.0
same,ORYSAT rating,[11]; 0.0156 kg/ha,0.0
same,ORYSAT rating,[11]; 0.0313 kg/ha,0.0
same,ORYSAT rating,[11]; 0.0625 kg/ha,0.0
same,ORYSAT rating,[11]; 0.1250 kg/ha,0.0
same,ORYSAT rating,[11]; 0.2500 kg/ha,3.0
same,SAGPY herbicidal effect rating,[12]; 0.0313 kg/ha,0.0
same,SAGPY herbicidal effect rating,[12]; 0.0625 kg/ha,0.0
same,SAGPY herbicidal effect rating,[12]; 0.1250 kg/ha,5.0
same,SAGPY herbicidal effect rating,[12]; 0.2500 kg/ha,9.0
same,AMBEL herbicidal rating,[13]; rate 0.0158 kg/ha,7.0
same,AMBEL herbicidal rating,[13]; rate 0.0315 kg/ha,9.0
same,AMBEL herbicidal rating,[13]; rate 0.0630 kg/ha,9.0
same,ABUTH rating,[14]; 0.0156 kg/ha,0.0
same,ABUTH rating,[14]; 0.0313 kg/ha,9.0
same,ABUTH rating,[14]; 0.0625 kg/ha,9.0
same,ABUTH rating,[14]; 0.1250 kg/ha,9.0
same,ABUTH rating,[14]; 0.2500 kg/ha,9.0
same,IPOHE rating,[15]; 0.0156 kg/ha,0.0
same,IPOHE rating,[15]; 0.0313 kg/ha,0.0
same,IPOHE rating,[15]; 0.0625 kg/ha,0.0
same,IPOHE rating,[15]; 0.1250 kg/ha,9.0
same,IPOHE rating,[15]; 0.2500 kg/ha,9.0
same,GLXMAW herbicidal rating,[16]; rate 0.0158 kg/ha,9.0
same,GLXMAW herbicidal rating,[16]; rate 0.0315 kg/ha,9.0
same,GLXMAW herbicidal rating,[16]; rate 0.0630 kg/ha,9.0
